# How the values were obtained:
# CK1α = biological target: T1, CK1α (Homo sapiens, UniProt P48729+Q96SW2); assay: Western blot, degradation of substrate protein in hPBMCs; format: cell-based
# T1 construct: effects of the compounds of the present disclosure on the expression of target proteins in cells; endogenous in cells; host or cells: human PBMCs (Milecell Biotechnologies)
# IKZF1 = biological target: T2, IKZF1 (Homo sapiens, UniProt Q13422+Q96SW2); assay: as above; format: cell-based
# T2 construct: effects of the compounds of the present disclosure on the expression of target proteins in cells; endogenous in cells; host or cells: human PBMCs (Milecell Biotechnologies)
# IKZF2 = biological target: T3, IKZF2 (Homo sapiens, UniProt Q96SW2+Q9UKS7); assay: as above; format: cell-based
# T3 construct: effects of the compounds of the present disclosure on the expression of target proteins in cells; endogenous in cells; host or cells: human PBMCs (Milecell Biotechnologies)
# IKZF3 = biological target: T4, IKZF3 (Homo sapiens, UniProt Q96SW2+Q9UKT9); assay: as above; format: cell-based
# T4 construct: effects of the compounds of the present disclosure on the expression of target proteins in cells; endogenous in cells; host or cells: human PBMCs (Milecell Biotechnologies)
# WEE1 = biological target: T5, WEE1 (Homo sapiens, UniProt P30291+Q96SW2); assay: as above; format: cell-based
# T5 construct: effects of the compounds of the present disclosure on the expression of target proteins in cells; endogenous in cells; host or cells: human PBMCs (Milecell Biotechnologies)
# GSPT1 = assay: as above; format: cell-based, Human
# [1] = biological target: T6, human Cereblon WT GST-tagged protein (Homo sapiens, UniProt Q96SW2); assay: CRBN-binding affinity, HTRF (CEREBLON BINDING kit); conditions: for inhibition at 0.5 µM: read-out: Inhibition Rate at 0.5 µM (%); for inhibition at 2 µM: read-out: Inhibition Rate at 2 µM (%)
# T6 construct: purchased CISBIO 64BDCRBNPEH
# [2] = tested on: Human multiple myeloma cell (MM.1S); assay: Tumor cell proliferation inhibition (CellTiter-Meiluncell luminescent cell viability assay); conditions: for inhibition at 0.01 µM / inhibition at 0.5 µM: Homo sapiens, MM1.S, 96 h; for inhibition at 0.01 µM: read-out: Inhibition Rate at 10 nM (%); for Inhibition Rate at 500 nM (%): MM.1S, 96 hours; for inhibition at 0.5 µM: read-out: Inhibition Rate at 500 nM (%)
# Method: The tumor cells used herein were cultured in a cell culture medium listed in table 2 at 37°C in an incubator with 5% CO2. Prior to experimentation, all cell lines used were correctly identified by STR profiling, and tested negative for mycoplasma contamination using a mycoplasma detection kit through routine screenings.
# The IC50 values of the compounds of the present disclosure (including the compounds in Table 1 and Examples) were determined using the CellTiter-Meiluncell Luminescent Cell Viability Assay Kit from Dalian Meilun Biotech Co., Ltd. The detailed procedure is as follows: Tumor cells were seeded in 96-well cell culture plates at the densities specified in Table 3. On the following day, the test compounds of the present disclosure were subjected to serial dilution. The dilution can be performed according to one of the following two methods: • (1) The first dilution method: The test compounds of the present disclosure (including the compounds in Table 1 and Examples) were subjected to 5-fold serial dilutions starting from a highest concentration of 2000 µM, resulting in a total of 9 concentrations from high to low (2000, 400, 80, 16, 3.2, 0.64, 0.128, 0.0256, 0.00512 µM). Subsequently, 0.5 µL of the test compound dilution was transferred into the 96-well plate containing the cells, with each well containing 100 µL of cell culture medium. […] Into the 96-well plate, the diluted test compounds and corresponding detection reagents were added, resulting in final test compound concentrations of 500 nM and 10 nM, respectively. The experimental procedure is described below using the diluted 2 µM test compound as an example.
# 0.5 µL of the aforementioned diluted compound of the present disclosure (including the compounds in Table 1 and Examples) was added to the seeded cells in 100 µL of medium, yielding a final test compound concentration of 10 nM. After the cells were treated with the compounds of the present disclosure for a specified period, the cell viability assay reagent was added to the culture medium according to the kit's instructions to determine cell viability. […] All controls were treated using the same procedure as the compounds of the present disclosure. The growth inhibition curves for the compounds of the present disclosure were plotted using Prism GraphPad software, and the IC50 values were calculated therefrom.
# [3] = tested on: Human myeloid monocytic leukemia cell (MV-4-11); assay: as above; conditions: MV4-11, 96 h; for inhibition at 0.01 µM: read-out: Inhibition Rate at 10 nM (%); for inhibition at 0.5 µM: read-out: Inhibition Rate at 500 nM (%)
# [4] = Western blot, 24 hours of compound treatment, compounds tested at 50 nM and 500 nM (concentration for the table not stated)
# [5] = 24 hours treatment, compounds at 50 nM and 500 nM (concentration behind the class not stated)
# T3 sequence (Q9UKS7 whole entry): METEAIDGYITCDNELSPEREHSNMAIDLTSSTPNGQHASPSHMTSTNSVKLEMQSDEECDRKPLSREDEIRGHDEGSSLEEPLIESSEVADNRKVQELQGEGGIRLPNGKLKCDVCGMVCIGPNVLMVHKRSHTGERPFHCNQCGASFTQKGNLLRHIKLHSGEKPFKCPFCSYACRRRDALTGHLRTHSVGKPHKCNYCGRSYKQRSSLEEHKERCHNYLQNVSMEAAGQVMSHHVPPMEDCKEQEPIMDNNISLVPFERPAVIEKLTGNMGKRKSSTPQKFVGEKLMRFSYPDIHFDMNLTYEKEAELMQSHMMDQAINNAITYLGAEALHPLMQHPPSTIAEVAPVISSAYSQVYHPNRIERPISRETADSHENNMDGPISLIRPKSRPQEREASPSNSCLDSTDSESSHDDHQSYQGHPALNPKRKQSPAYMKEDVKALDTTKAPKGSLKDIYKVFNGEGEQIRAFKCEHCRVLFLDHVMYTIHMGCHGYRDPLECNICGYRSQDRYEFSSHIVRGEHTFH
# T3 sequence (Q96SW2 whole entry): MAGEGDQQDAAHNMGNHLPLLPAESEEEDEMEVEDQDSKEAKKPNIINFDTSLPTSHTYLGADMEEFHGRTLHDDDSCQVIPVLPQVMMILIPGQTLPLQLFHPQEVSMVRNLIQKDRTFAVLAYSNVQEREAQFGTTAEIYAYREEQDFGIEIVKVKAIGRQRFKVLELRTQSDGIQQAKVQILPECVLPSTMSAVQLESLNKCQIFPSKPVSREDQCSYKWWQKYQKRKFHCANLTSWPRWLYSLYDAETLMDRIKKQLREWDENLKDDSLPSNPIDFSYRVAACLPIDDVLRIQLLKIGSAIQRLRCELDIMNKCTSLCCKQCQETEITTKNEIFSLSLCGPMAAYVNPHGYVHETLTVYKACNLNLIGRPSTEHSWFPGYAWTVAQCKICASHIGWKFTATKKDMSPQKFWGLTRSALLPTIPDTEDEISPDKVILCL
# T3 sequence (Q16531 whole entry partner): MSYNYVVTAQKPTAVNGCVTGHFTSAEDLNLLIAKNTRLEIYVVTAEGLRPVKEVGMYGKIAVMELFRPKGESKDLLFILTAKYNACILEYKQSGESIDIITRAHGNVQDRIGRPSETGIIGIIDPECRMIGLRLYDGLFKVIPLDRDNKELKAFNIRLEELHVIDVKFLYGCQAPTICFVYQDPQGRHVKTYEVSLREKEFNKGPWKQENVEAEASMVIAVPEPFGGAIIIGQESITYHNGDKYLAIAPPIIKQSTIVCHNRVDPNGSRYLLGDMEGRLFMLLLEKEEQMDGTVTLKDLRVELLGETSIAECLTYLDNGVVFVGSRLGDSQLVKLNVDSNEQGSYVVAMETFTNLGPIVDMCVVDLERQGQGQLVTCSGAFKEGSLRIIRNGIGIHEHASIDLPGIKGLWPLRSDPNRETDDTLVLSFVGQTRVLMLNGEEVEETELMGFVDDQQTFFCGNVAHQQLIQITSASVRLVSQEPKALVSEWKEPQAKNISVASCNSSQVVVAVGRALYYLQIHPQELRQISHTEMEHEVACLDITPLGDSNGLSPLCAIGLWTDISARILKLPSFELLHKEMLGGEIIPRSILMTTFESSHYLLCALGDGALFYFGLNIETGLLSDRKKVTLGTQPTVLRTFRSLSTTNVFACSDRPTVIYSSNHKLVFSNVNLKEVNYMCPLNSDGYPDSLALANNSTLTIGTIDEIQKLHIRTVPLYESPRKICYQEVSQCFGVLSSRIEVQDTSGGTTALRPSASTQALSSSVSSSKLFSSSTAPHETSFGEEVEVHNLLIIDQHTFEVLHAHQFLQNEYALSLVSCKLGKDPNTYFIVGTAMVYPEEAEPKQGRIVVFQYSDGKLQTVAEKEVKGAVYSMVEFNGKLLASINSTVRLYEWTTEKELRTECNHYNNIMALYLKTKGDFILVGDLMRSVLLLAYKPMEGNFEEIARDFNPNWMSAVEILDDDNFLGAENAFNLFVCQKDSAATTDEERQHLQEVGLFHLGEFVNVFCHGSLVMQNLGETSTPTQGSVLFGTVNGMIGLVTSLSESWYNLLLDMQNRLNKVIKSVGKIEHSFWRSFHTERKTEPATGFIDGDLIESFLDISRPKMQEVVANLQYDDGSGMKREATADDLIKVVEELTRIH
# T1 sequence (P48729 whole entry): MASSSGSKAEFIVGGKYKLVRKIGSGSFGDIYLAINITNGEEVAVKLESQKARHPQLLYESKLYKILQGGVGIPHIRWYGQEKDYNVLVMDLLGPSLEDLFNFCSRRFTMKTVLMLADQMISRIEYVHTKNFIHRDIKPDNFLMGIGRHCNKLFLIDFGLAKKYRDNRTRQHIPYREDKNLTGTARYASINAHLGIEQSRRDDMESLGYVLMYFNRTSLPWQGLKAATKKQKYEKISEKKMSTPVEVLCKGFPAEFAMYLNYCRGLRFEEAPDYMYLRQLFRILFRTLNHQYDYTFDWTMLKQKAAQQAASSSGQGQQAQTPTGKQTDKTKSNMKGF
# T1 sequence (Q96SW2 whole entry): as the sequence (Q96SW2 whole entry) above
# T1 sequence (Q16531 whole entry partner): as the sequence (Q16531 whole entry partner) above
# T2 sequence (Q13422 whole entry): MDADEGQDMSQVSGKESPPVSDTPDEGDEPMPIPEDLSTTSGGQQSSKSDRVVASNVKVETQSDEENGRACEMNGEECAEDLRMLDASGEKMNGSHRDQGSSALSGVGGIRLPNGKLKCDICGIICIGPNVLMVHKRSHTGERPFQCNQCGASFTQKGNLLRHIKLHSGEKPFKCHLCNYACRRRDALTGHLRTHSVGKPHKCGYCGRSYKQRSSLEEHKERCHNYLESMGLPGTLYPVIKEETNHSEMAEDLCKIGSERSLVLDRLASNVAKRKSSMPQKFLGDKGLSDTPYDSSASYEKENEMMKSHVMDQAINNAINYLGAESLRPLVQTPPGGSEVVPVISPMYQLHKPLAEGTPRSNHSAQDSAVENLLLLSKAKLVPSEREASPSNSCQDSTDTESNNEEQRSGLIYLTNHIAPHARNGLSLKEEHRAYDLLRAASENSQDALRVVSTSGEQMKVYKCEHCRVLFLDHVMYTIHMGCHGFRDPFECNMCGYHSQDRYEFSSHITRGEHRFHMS
# T2 sequence (Q96SW2 whole entry): as the sequence (Q96SW2 whole entry) above
# T2 sequence (Q16531 whole entry partner): as the sequence (Q16531 whole entry partner) above
# T5 sequence (P30291 whole entry): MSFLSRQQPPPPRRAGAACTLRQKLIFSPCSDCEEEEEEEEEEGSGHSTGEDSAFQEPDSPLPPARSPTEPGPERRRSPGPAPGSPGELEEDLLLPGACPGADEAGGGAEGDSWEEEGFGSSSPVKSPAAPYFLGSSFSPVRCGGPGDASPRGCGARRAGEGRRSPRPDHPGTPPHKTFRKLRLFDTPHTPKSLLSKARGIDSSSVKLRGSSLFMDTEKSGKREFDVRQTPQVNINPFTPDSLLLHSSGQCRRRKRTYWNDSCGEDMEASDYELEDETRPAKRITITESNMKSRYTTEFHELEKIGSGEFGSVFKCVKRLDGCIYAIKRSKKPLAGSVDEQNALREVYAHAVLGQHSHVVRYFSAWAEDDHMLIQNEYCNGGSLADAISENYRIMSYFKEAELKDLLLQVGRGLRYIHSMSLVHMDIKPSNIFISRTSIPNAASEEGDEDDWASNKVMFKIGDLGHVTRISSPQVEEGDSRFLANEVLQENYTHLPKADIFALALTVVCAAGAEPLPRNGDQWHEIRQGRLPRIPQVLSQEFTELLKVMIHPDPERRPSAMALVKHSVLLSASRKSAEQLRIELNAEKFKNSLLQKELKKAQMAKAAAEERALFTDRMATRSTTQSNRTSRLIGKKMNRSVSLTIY
# T5 sequence (Q96SW2 whole entry): as the sequence (Q96SW2 whole entry) above
# T5 sequence (Q16531 whole entry partner): as the sequence (Q16531 whole entry partner) above
# T4 sequence (Q9UKT9 whole entry): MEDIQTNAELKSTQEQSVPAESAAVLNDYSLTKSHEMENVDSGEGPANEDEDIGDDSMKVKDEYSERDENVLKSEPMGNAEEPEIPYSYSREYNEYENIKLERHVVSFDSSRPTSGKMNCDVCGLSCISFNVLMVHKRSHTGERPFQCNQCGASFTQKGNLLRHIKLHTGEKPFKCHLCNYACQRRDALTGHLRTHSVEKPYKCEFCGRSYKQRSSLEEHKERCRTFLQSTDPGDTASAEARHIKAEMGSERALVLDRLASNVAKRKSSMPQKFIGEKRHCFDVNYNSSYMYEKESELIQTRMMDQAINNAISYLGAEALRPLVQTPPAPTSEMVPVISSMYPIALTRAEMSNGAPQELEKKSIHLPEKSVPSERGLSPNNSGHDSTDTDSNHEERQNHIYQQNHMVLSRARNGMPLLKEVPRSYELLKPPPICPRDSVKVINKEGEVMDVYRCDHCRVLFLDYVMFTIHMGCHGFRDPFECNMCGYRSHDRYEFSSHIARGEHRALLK
# T4 sequence (Q96SW2 whole entry): as the sequence (Q96SW2 whole entry) above
# T4 sequence (Q16531 whole entry partner): as the sequence (Q16531 whole entry partner) above
# T6 sequence (Q96SW2 whole entry): as the sequence (Q96SW2 whole entry) above
inhibition at 0.5 µM [1] [%],inhibition at 2 µM [1] [%],SMILES,CK1α substrate protein remaining % (CK1α; [4]),IKZF 1 substrate protein remaining % (IKZF1; [4]),IKZF2 substrate protein remaining % (IKZF2; [4]),IKZF3 substrate protein remaining % (IKZF3; [4]),Wee1 substrate protein remaining % (WEE1; [4]),GSPT1 substrate protein remaining % (GSPT1; [4]),inhibition at 0.01 µM [2] [%],Inhibition Rate at 500 nM (%) [2],inhibition at 0.01 µM [3] [%],inhibition at 0.5 µM [3] [%],inhibition at 0.5 µM [2] [%],CK1α substrate protein remaining % (CK1α; [5]),IKZF 1 substrate protein remaining % (IKZF1; [5]),IKZF2 substrate protein remaining % (IKZF2; [5]),IKZF3 substrate protein remaining % (IKZF3; [5]),Wee1 substrate protein remaining % (WEE1; [5]),GSPT1 substrate protein remaining % (GSPT1; [5])
53 to 60,80 to 100,"O=C1CCC(N2Cc3cc(CN4CCN(c5ccc(F)cc5)CC4)ccc3C2=S)C(=O)N1 (stereo not shown) [GT-08240, 3-(5-((4-(4-fluorophenyl)piperazin-1-yl)methyl)-1-thioxoisoindolin-2-yl)piperidine-2,6-dione]",B (80%< substrate protein remaining %≤ 100%),B (80%< substrate protein remaining %≤ 100%),B (80%< substrate protein remaining %≤ 100%),B (80%< substrate protein remaining %≤ 100%),B (80%< substrate protein remaining %≤ 100%),A (0% ≤ substrate protein remaining % ≤ 80%),50 to 60,–,0 to 5,40 to 60,50 to 60,–,–,–,–,–,–
40 to 53,80 to 100,"Cc1ccsc1C1CCN(Cc2ccc3c(c2)CN(C2CCC(=O)NC2=O)C3=S)CC1 (stereo not shown) [GT-08323, 3-(5-((4-(3-methylthiophen-2-yl)piperidin-1-yl)methyl)-1-thioxoisoindolin-2-yl)piperidine-2,6-dione]",–,–,–,–,–,–,0 to 5,la7,-5 to 0,40 to 60,–,A (0% ≤ substrate protein remaining % ≤ 80%),B (80%< substrate protein remaining %≤ 100%),B (80%< substrate protein remaining %≤ 100%),B (80%< substrate protein remaining %≤ 100%),B (80%< substrate protein remaining %≤ 100%),A (0% ≤ substrate protein remaining % ≤ 80%)
40 to 53,80 to 100,"O=C1CCC(N2Cc3c(CN4C[C@@H]5C[C@H]4CN5c4cccc(Cl)c4Cl)cccc3C2=S)C(=O)N1 (stereo partly drawn) [GT-08468, 3-(4-(((1S,4S)-5-(2,3-dichlorophenyl)-2,5-diazabicyclo[2.2.1]heptan-2-yl)methyl)-1-thioxoisoindolin-2-yl)piperidine-2,6-dione]",B (80%< substrate protein remaining %≤ 100%),B (80%< substrate protein remaining %≤ 100%),B (80%< substrate protein remaining %≤ 100%),B (80%< substrate protein remaining %≤ 100%),B (80%< substrate protein remaining %≤ 100%),A (0% ≤ substrate protein remaining % ≤ 80%),40 to 50,–,40 to 60,40 to 60,50 to 60,–,–,–,–,–,–
30 to 40,53 to 60,"O=C1CCC(N2Cc3c(CN4CC=C(c5cccc6c(F)cccc56)CC4)cccc3C2=S)C(=O)N1 (stereo not shown) [GT-08856, 3-(4-((4-(5-fluoronaphthalen-1-yl)-3,6-dihydropyridin-1(2H)-yl)methyl)-1-thioxoisoindolin-2-yl)piperidine-2,6-dione]",–,–,–,–,–,–,20 to 30,–,40 to 60,40 to 60,40 to 50,–,–,–,–,–,–
60 to 80,80 to 100,"Cc1cccc(N2CCN(Cc3ccc4c(c3)CN(C3CCC(=O)NC3=O)C4=S)CC2)n1 (stereo not shown) [GT-09214, 3-(5-((4-(6-methylpyridin-2-yl)piperazin-1-yl)methyl)-1-thioxoisoindolin-2-yl)piperidine-2,6-dione]",B (80%< substrate protein remaining %≤ 100%),B (80%< substrate protein remaining %≤ 100%),B (80%< substrate protein remaining %≤ 100%),B (80%< substrate protein remaining %≤ 100%),B (80%< substrate protein remaining %≤ 100%),A (0% ≤ substrate protein remaining % ≤ 80%),–,–,10 to 18,40 to 60,–,–,–,–,–,–,–
60 to 80,80 to 100,"O=C1CCC(N2Cc3cc(CN4CCN(c5ncccc5F)CC4)ccc3C2=S)C(=O)N1 (stereo not shown) [GT-09220, 3-(5-((4-(3-fluoropyridin-2-yl)piperazin-1-yl)methyl)-1-thioxoisoindolin-2-yl)piperidine-2,6-dione]",B (80%< substrate protein remaining %≤ 100%),A (0% ≤ substrate protein remaining % ≤ 80%),A (0% ≤ substrate protein remaining % ≤ 80%),B (80%< substrate protein remaining %≤ 100%),A (0% ≤ substrate protein remaining % ≤ 80%),B (80%< substrate protein remaining %≤ 100%),–,–,30 to 40,40 to 60,–,–,–,–,–,–,–
60 to 80,80 to 100,"O=C1CCC(N2Cc3cc(CN4CCN(c5cccc(C(F)(F)F)n5)CC4)ccc3C2=S)C(=O)N1 (stereo not shown) [GT-09224, 3-(1-thioxo-5-((4-(6-(trifluoromethyl)pyridin-2-yl)piperazin-1-yl)methyl)isoindolin-2-yl)piperidine-2,6-dione]",A (0% ≤ substrate protein remaining % ≤ 80%),B (80%< substrate protein remaining %≤ 100%),B (80%< substrate protein remaining %≤ 100%),A (0% ≤ substrate protein remaining % ≤ 80%),B (80%< substrate protein remaining %≤ 100%),A (0% ≤ substrate protein remaining % ≤ 80%),–,–,-5 to 0,40 to 60,–,–,–,–,–,–,–
60 to 80,80 to 100,"O=C1CCC(N2Cc3cc(CN4CCN(c5cncc(Cl)c5Cl)CC4)ccc3C2=S)C(=O)N1 (stereo not shown) [GT-09231, 3-(5-((4-(4,5-dichloropyridin-3-yl)piperazin-1-yl)methyl)-1-thioxoisoindolin-2-yl)piperidine-2,6-dione]",A (0% ≤ substrate protein remaining % ≤ 80%),A (0% ≤ substrate protein remaining % ≤ 80%),A (0% ≤ substrate protein remaining % ≤ 80%),A (0% ≤ substrate protein remaining % ≤ 80%),B (80%< substrate protein remaining %≤ 100%),A (0% ≤ substrate protein remaining % ≤ 80%),–,–,30 to 40,40 to 60,–,–,–,–,–,–,–
60 to 80,80 to 100,"O=C1CCC(N2Cc3cc(CN4CCN(c5c(F)c(F)nc(F)c5F)CC4)ccc3C2=S)C(=O)N1 (stereo not shown) [GT-09250, 3-(5-((4-(perfluoropyridin-4-yl)piperazin-1-yl)methyl)-1-thioxoisoindolin-2-yl)piperidine-2,6-dione]",–,–,–,–,–,–,30 to 40,la7,30 to 40,40 to 60,–,–,–,–,–,–,–

SMILES,inhibition at 0.5 µM [1] [%],inhibition at 2 µM [1] [%],CK1α substrate protein remaining % (CK1α; [4]),IKZF 1 substrate protein remaining % (IKZF1; [4]),IKZF2 substrate protein remaining % (IKZF2; [4]),IKZF3 substrate protein remaining % (IKZF3; [4]),Wee1 substrate protein remaining % (WEE1; [4]),GSPT1 substrate protein remaining % (GSPT1; [4]),inhibition at 0.01 µM [2] [%],Inhibition Rate at 500 nM (%) [2],inhibition at 0.01 µM [3] [%],inhibition at 0.5 µM [3] [%],inhibition at 0.5 µM [2] [%],CK1α substrate protein remaining % (CK1α; [5]),IKZF 1 substrate protein remaining % (IKZF1; [5]),IKZF2 substrate protein remaining % (IKZF2; [5]),IKZF3 substrate protein remaining % (IKZF3; [5]),Wee1 substrate protein remaining % (WEE1; [5]),GSPT1 substrate protein remaining % (GSPT1; [5])
"O=C1CCC(N2Cc3cc(CN4C5CCC4CN(C(c4ccccc4)c4ccccc4)C5)ccc3C2=S)C(=O)N1 (stereo not shown) [GT-07850, 3-(5-((3-benzhydryl-3,8-diazabicyclo[3.2.1]octan-8-yl)methyl)-1-thioxoisoindolin-2-yl)piperidine-2,6-dione]",40 to 53,80 to 100,B (80%< substrate protein remaining %≤ 100%),B (80%< substrate protein remaining %≤ 100%),A (0% ≤ substrate protein remaining % ≤ 80%),B (80%< substrate protein remaining %≤ 100%),A (0% ≤ substrate protein remaining % ≤ 80%),A (0% ≤ substrate protein remaining % ≤ 80%),30 to 40,la7,40 to 60,40 to 60,–,–,–,–,–,–,–
"O=C1CCC(N2Cc3c(CN4C5CCC4CN(c4cccc(Cl)c4Cl)C5)cccc3C2=S)C(=O)N1 (stereo not shown) [GT-08471, 3-(4-((3-(2,3-dichlorophenyl)-3,8-diazabicyclo[3.2.1]octan-8-yl)methyl)-1-thioxoisoindolin-2-yl)piperidine-2,6-dione]",30 to 40,60 to 80,B (80%< substrate protein remaining %≤ 100%),B (80%< substrate protein remaining %≤ 100%),B (80%< substrate protein remaining %≤ 100%),B (80%< substrate protein remaining %≤ 100%),B (80%< substrate protein remaining %≤ 100%),A (0% ≤ substrate protein remaining % ≤ 80%),40 to 50,–,40 to 60,40 to 60,40 to 50,–,–,–,–,–,–

# Source: EP4745135A1 (Gluetacs Therapeutics (Shanghai) Co., Ltd., priority 2023, dated 2025)
